Several values for one entry are separate records, joined by “and”; a condition that tells them apart may be missing. Identical values can stand only once.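 Values below derive from 48-hour exposures of cells grown in 96-well plates, with endpoints linearly interpolated between the two concentrations bracketing the appropriate inhibition level. Here, GI50 denotes the concentration required for 50% inhibition of growth. TGI marks complete inhibition of growth.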
How the values were obtained:
Assay in all cases: inhibition of tumour cell growth, NCI panel, 48 h
HCT-116 colon = system: HCT-116 colon
HT29 colon = system: HT29 colon
LOX IMVI melanoma = system: LOX IMVI melanoma
OVCAR-3 ovarian = system: OVCAR-3 ovarian
SNB-78 CNS = system: SNB-78 CNS
UACC-62 melanoma = system: UACC-62 melanoma
UO-31 renal = system: UO-31 renal
XF 498 CNS = system: XF 498 CNS
U251 CNS = system: U251 CNS
DU-145 prostate = system: DU-145 prostate

CN1COCN=C1NC#N
TGI (HCT-116 colon): > 100 µM | TGI (HT29 colon): > 100 µM | TGI (LOX IMVI melanoma): > 100 µM | TGI (OVCAR-3 ovarian): > 100 µM | TGI (SNB-78 CNS): > 100 µM | TGI (UACC-62 melanoma): > 100 µM | TGI (UO-31 renal): > 100 µM | TGI (XF 498 CNS): > 100 µM

c1ccc(C2N=C(c3ccccn3)C(c3ccccn3)=NC2c2ccccc2)cc1 (centres undefined)
TGI (HCT-116 colon): > 100 µM | TGI (HT29 colon): > 100 µM | TGI (LOX IMVI melanoma): > 100 µM | TGI (OVCAR-3 ovarian): > 100 µM | TGI (SNB-78 CNS): > 100 µM | TGI (U251 CNS): > 100 µM | TGI (UACC-62 melanoma): > 100 µM | TGI (UO-31 renal): > 100 µM | TGI (XF 498 CNS): > 100 µM

COC(=O)c1c(CC(=O)OC(C)C)cc2n(c1=O)Cc1c-2nc2ccccc2c1OC
TGI (HCT-116 colon): > 100 µM | TGI (HT29 colon): > 100 µM | TGI (LOX IMVI melanoma): > 100 µM | TGI (OVCAR-3 ovarian): > 100 µM | TGI (U251 CNS): > 100 µM | TGI (UACC-62 melanoma): > 100 µM | TGI (UO-31 renal): > 100 µM | TGI (XF 498 CNS): > 100 µM

NCCCNCCSP(=O)(O)O
TGI (HCT-116 colon): > 750 µM | TGI (HT29 colon): > 750 µM | TGI (LOX IMVI melanoma): > 750 µM | TGI (OVCAR-3 ovarian): > 750 µM | TGI (SNB-78 CNS): > 750 µM | TGI (U251 CNS): > 750 µM | TGI (UACC-62 melanoma): > 750 µM | TGI (UO-31 renal): > 750 µM | TGI (XF 498 CNS): > 422 µM

CSCSCC(CO)NC(=O)/C=C\c1c(C)[nH]c(=O)[nH]c1=O (centres undefined)
TGI (HCT-116 colon): 96.4 µM | TGI (HT29 colon): 270 µM | TGI (LOX IMVI melanoma): 107 µM | GI50 (OVCAR-3 ovarian): 1.41 µM | TGI (OVCAR-3 ovarian): 14 µM | GI50 (SNB-78 CNS): 30.9 µM | TGI (SNB-78 CNS): 260 µM | TGI (U251 CNS): 201 µM | TGI (UACC-62 melanoma): 197 µM | TGI (UO-31 renal): 126 µM | TGI (XF 498 CNS): 9.99 µM

CC(C)(C1=NC(C(C)(C)C)CO1)C1=N[C@@H](C(C)(C)C)CO1 (some centres undefined)
TGI (HCT-116 colon): > 100 µM | TGI (HT29 colon): > 100 µM | TGI (LOX IMVI melanoma): > 100 µM | TGI (OVCAR-3 ovarian): > 100 µM | TGI (U251 CNS): > 100 µM | TGI (UACC-62 melanoma): > 100 µM | TGI (UO-31 renal): > 100 µM | TGI (XF 498 CNS): > 100 µM

Cc1c2cc[n+](C)cc2c(C)c2c1[nH]c1ccc(OCC(F)(F)F)cc12
TGI (HCT-116 colon): > 100 µM | TGI (HT29 colon): 8.14 µM and > 55.1 µM | GI50 (LOX IMVI melanoma): 10.8 µM and 22.8 µM | TGI (LOX IMVI melanoma): > 100 µM | TGI (OVCAR-3 ovarian): 25 µM and > 100 µM | TGI (SNB-78 CNS): > 100 µM | TGI (U251 CNS): 1.49 µM | TGI (UACC-62 melanoma): > 100 µM | GI50 (UO-31 renal): 36.6 µM and > 100 µM | TGI (UO-31 renal): > 100 µM

CC(C)=CC(=O)OC1C2C(C)=CC(=O)C(O)C2(C)C2C3(O)OCC24C(CC(=O)OC14)C(C)C3O (centres undefined)
GI50 (DU-145 prostate): 0.0225 µM | TGI (DU-145 prostate): 0.0173 µM and 0.141 µM | GI50 (HCT-116 colon): 0.02 µM | TGI (HCT-116 colon): 0.0172 µM and 0.0807 µM | GI50 (HT29 colon): 0.0302 µM | TGI (HT29 colon): 0.0449 µM and 0.0146 µM and 0.137 µM | GI50 (LOX IMVI melanoma): 0.0298 µM | TGI (OVCAR-3 ovarian): 0.0226 µM and 0.0354 µM | GI50 (SNB-78 CNS): 0.0575 µM | TGI (SNB-78 CNS): 0.36 µM and 0.153 µM | GI50 (U251 CNS): 0.02 µM | TGI (U251 CNS): 0.0192 µM and 0.0314 µM | GI50 (UACC-62 melanoma): 0.0204 µM | TGI (UACC-62 melanoma): 0.0313 µM and 0.0404 µM | GI50 (UO-31 renal): 0.829 µM | TGI (UO-31 renal): 0.545 µM and 4.78 µM and 1.03 µM | GI50 (XF 498 CNS): 0.00543 µM | TGI (XF 498 CNS): 0.0217 µM and 0.0556 µM

O=c1cc(-c2ccccc2)oc2cc(OCCCCCCCCCCOc3ccc4c(=O)cc(-c5ccccc5)oc4c3)ccc12
TGI (HCT-116 colon): > 100 µM | TGI (HT29 colon): > 100 µM | TGI (OVCAR-3 ovarian): > 100 µM | TGI (SNB-78 CNS): > 100 µM | TGI (U251 CNS): > 100 µM | TGI (UACC-62 melanoma): > 100 µM | TGI (XF 498 CNS): > 100 µM

CCN(CC)CC[n+]1ccc2c(C)c3[nH]c4ccccc4c3c(C)c2c1
TGI (DU-145 prostate): 3.72 µM | GI50 (HT29 colon): 0.416 µM | TGI (HT29 colon): 3.82 µM and 4.45 µM and 4.46 µM | TGI (LOX IMVI melanoma): 2.13 µM and 3.73 µM and 16.3 µM | GI50 (OVCAR-3 ovarian): 0.934 µM | TGI (OVCAR-3 ovarian): 2.02 µM and 4.55 µM and 2.07 µM | GI50 (SNB-78 CNS): 0.293 µM and 1.17 µM | TGI (SNB-78 CNS): 1.49 µM and 7.14 µM | GI50 (U251 CNS): 0.25 µM | TGI (U251 CNS): 1.3 µM and 5.1 µM and 1.63 µM | GI50 (UACC-62 melanoma): 0.491 µM and 0.827 µM and 1.27 µM | TGI (UACC-62 melanoma): 1.65 µM and 2.56 µM and 3.75 µM | GI50 (UO-31 renal): 22.6 µM and 10.5 µM and 4.12 µM | TGI (UO-31 renal): 78.6 µM and 44 µM and 16.8 µM

C/C(N=NS(=O)(=O)c1c(C)cc(C)cc1C)=C1\C=CC=CN1O
TGI (HCT-116 colon): > 100 µM | TGI (HT29 colon): > 100 µM | TGI (OVCAR-3 ovarian): > 100 µM | TGI (SNB-78 CNS): > 100 µM | TGI (U251 CNS): > 100 µM | TGI (UACC-62 melanoma): > 100 µM | TGI (UO-31 renal): > 100 µM | TGI (XF 498 CNS): > 100 µM

N/C(=N\N=C/c1c(O)cc(O)cc1O)NO
TGI (HCT-116 colon): > 100 µM | TGI (HT29 colon): > 100 µM | TGI (LOX IMVI melanoma): > 100 µM | TGI (OVCAR-3 ovarian): > 100 µM | TGI (SNB-78 CNS): > 100 µM | TGI (U251 CNS): > 100 µM | TGI (UACC-62 melanoma): > 100 µM | TGI (UO-31 renal): > 100 µM

C=C1C(=O)OC2C[C@@]3(C)CCCC(=C)C3CC12 (some centres undefined)
TGI (HCT-116 colon): 15.2 µM | TGI (HT29 colon): 24 µM | TGI (LOX IMVI melanoma): 2.59 µM | TGI (OVCAR-3 ovarian): 22.6 µM | TGI (SNB-78 CNS): 13.5 µM | TGI (U251 CNS): 21.7 µM | TGI (UACC-62 melanoma): 18.1 µM | TGI (UO-31 renal): 17.1 µM | TGI (XF 498 CNS): 13.5 µM

CN1Cc2ccccc2C2(COc3ccccc3C2=O)C1 (centres undefined)
TGI (HCT-116 colon): > 100 µM | TGI (HT29 colon): > 100 µM | TGI (LOX IMVI melanoma): > 100 µM | TGI (OVCAR-3 ovarian): > 100 µM | TGI (SNB-78 CNS): > 100 µM | TGI (U251 CNS): > 100 µM | TGI (UACC-62 melanoma): > 100 µM | TGI (UO-31 renal): > 100 µM

CC(C)(C)OC(=O)NCC(c1c[nH]c2ccccc12)c1c[nH]c2ccccc12
TGI (DU-145 prostate): 29 µM | TGI (HCT-116 colon): 30.4 µM | TGI (HT29 colon): 29.8 µM | TGI (LOX IMVI melanoma): 35.3 µM | TGI (OVCAR-3 ovarian): 30.6 µM | TGI (U251 CNS): 29.8 µM | TGI (UACC-62 melanoma): > 100 µM | TGI (UO-31 renal): 27.4 µM

CCOC(=O)c1cnc2n(c1=O)[C@H]1CCCC[C@@H]1N2
TGI (DU-145 prostate): > 100 µM | TGI (HCT-116 colon): > 100 µM | TGI (HT29 colon): > 100 µM | TGI (LOX IMVI melanoma): > 100 µM | TGI (OVCAR-3 ovarian): > 100 µM | TGI (U251 CNS): > 100 µM | TGI (UACC-62 melanoma): > 100 µM | TGI (UO-31 renal): > 100 µM

Cc1ccc(N2Cc3c(ccc4ccccc34)OP2(=S)N2CCCC2)cc1 (centres undefined)
TGI (HCT-116 colon): > 100 µM | TGI (HT29 colon): > 100 µM | TGI (LOX IMVI melanoma): > 100 µM | TGI (OVCAR-3 ovarian): > 55.7 µM | TGI (SNB-78 CNS): > 100 µM | TGI (U251 CNS): > 100 µM | TGI (UACC-62 melanoma): > 100 µM | TGI (UO-31 renal): > 100 µM | TGI (XF 498 CNS): > 100 µM

C=CCN1C(=O)C[C@H](Cc2ccccc2)NC(=O)C[C@H](Cc2ccccc2)N(CC=C)C(=O)C[C@H](Cc2ccccc2)NC(=O)C[C@@H]1Cc1ccccc1
TGI (DU-145 prostate): > 100 µM | TGI (HCT-116 colon): > 100 µM | TGI (HT29 colon): > 100 µM | TGI (LOX IMVI melanoma): > 100 µM | TGI (OVCAR-3 ovarian): > 100 µM | TGI (U251 CNS): > 100 µM | TGI (UACC-62 melanoma): > 100 µM | TGI (UO-31 renal): > 100 µM

O=Cn1c2ccccc2c2ccccc21
TGI (HCT-116 colon): > 100 µM | TGI (LOX IMVI melanoma): > 100 µM | TGI (OVCAR-3 ovarian): > 100 µM | TGI (SNB-78 CNS): > 100 µM | TGI (U251 CNS): > 100 µM | TGI (UACC-62 melanoma): > 100 µM | TGI (UO-31 renal): > 100 µM | TGI (XF 498 CNS): > 100 µM

Cc1c2oc(=O)c(C#N)cc2c2ccccn12
TGI (DU-145 prostate): > 100 µM | TGI (HCT-116 colon): > 100 µM | TGI (HT29 colon): > 100 µM | TGI (LOX IMVI melanoma): > 100 µM | TGI (OVCAR-3 ovarian): 69.5 µM | TGI (U251 CNS): > 100 µM | TGI (UACC-62 melanoma): > 100 µM | TGI (UO-31 renal): > 100 µM

Reference: PubChem BioAssay (NCI)
